# ChEMBL document CHEMBL5620408, “Discovery of novel diarypyrimidine derivatives bearing six-membered non-aromatic heterocycles as potent HIV-1 NNRTIs with improved anti-resistance and drug-like profiles” (Eur J Med Chem, 2023)
# Tests used:
# [1] = Cytotoxicity against human MT4 cells assessed as reduction in cell viability by MTT assay; assay type: toxicity, cell-based
# [2] = Selectivity index, ratio of CC50 for human MT4 cells to EC50 for antiviral activity against HIV IIIB
# [3] = Selectivity index, ratio of CC50 for human MT4 cells to EC50 for antiviral activity against HIV RES056
# [4] = system: Human immunodeficiency virus 1; experiment: Potency index, ratio of zidovudine EC50 to test compound EC50 for antiviral activity against HIV1 IIIB; assay type: functional
# [5] = system: Human immunodeficiency virus 1; experiment: Potency index, ratio of (E)-3-[3,5-dimethyl-4-[2-[4-[(4-methylsulfonylpiperazin-1-yl)methyl]anilino]pyrimidin-4-yl]oxy-phenyl]prop-2-enenitrile EC50 to test compound EC50 for antiviral activity against HIV1 IIIB; assay type: functional
# [6] = system: Human immunodeficiency virus 1; experiment: Potency index, ratio of nevirapine EC50 to test compound EC50 for antiviral activity against HIV1 IIIB; assay type: functional
# [7] = system: Human immunodeficiency virus 1; experiment: Potency index, ratio of etravirine EC50 to test compound EC50 for antiviral activity against HIV1 IIIB; assay type: functional
# [8] = system: Human immunodeficiency virus 1; experiment: Potency index, ratio of efavirenz EC50 to test compound EC50 for antiviral activity against HIV1 IIIB; assay type: functional
# [9] = system: Human immunodeficiency virus 1; experiment: Antiviral activity against HIV1 harboring L100I mutant infected in MT4 cells; assay type: functional, organism-based; conditions: Human immunodeficiency virus 1, MT4
# [10] = system: Human immunodeficiency virus 1; experiment: Antiviral activity against HIV1 harboring K103N mutant infected in MT4 cells; assay type: functional, organism-based; conditions: Human immunodeficiency virus 1, MT4
# [11] = system: Human immunodeficiency virus 1; experiment: Antiviral activity against HIV1 harboring Y181C mutant infected in MT4 cells; assay type: functional, organism-based; conditions: Human immunodeficiency virus 1, MT4
# [12] = system: Human immunodeficiency virus 1; experiment: Antiviral activity against HIV1 harboring Y188L mutant infected in MT4 cells; assay type: functional, organism-based; conditions: Human immunodeficiency virus 1, MT4
# [13] = system: Human immunodeficiency virus 1; experiment: Antiviral activity against HIV1 harboring E138K mutant infected in MT4 cells; assay type: functional, organism-based; conditions: Human immunodeficiency virus 1, MT4
# [14] = system: Human immunodeficiency virus 1; experiment: Antiviral activity against HIV1 harboring F227L/V106A double mutant infected in MT4 cells; assay type: functional, organism-based; conditions: Human immunodeficiency virus 1, MT4
# [15] = target: Human immunodeficiency virus type 1 reverse transcriptase (Human immunodeficiency virus 1, UniProt Q72547); experiment: Inhibition of wild type HIV-1 reverse transcriptase
# Cytochrome P450 1A2 = target: T1, Cytochrome P450 1A2 (Homo sapiens, UniProt P05177); experiment: Inhibition of CYP1A2 (unknown origin); assay type: ADME
# T1 sequence (P05177 whole entry): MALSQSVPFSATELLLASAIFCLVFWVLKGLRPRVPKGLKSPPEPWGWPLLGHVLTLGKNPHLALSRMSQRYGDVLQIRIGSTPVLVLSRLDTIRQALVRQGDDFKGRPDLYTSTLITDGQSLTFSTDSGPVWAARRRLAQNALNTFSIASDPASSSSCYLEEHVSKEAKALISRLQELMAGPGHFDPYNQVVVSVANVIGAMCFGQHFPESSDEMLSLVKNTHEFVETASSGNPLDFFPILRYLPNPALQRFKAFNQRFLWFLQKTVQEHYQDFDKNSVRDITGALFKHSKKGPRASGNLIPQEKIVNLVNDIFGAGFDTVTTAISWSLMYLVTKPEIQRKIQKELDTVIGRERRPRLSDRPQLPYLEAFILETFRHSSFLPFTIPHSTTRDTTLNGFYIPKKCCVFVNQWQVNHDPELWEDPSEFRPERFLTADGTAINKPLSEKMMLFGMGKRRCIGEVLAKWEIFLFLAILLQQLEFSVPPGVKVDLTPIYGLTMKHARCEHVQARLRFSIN
# Cytochrome P450 2C9 = Cytochrome P450 2C9 (Homo sapiens, UniProt P11712); experiment: Inhibition of CYP2C9 (unknown origin); assay type: ADME
# Cytochrome P450 2C9, sequence (P11712 whole entry): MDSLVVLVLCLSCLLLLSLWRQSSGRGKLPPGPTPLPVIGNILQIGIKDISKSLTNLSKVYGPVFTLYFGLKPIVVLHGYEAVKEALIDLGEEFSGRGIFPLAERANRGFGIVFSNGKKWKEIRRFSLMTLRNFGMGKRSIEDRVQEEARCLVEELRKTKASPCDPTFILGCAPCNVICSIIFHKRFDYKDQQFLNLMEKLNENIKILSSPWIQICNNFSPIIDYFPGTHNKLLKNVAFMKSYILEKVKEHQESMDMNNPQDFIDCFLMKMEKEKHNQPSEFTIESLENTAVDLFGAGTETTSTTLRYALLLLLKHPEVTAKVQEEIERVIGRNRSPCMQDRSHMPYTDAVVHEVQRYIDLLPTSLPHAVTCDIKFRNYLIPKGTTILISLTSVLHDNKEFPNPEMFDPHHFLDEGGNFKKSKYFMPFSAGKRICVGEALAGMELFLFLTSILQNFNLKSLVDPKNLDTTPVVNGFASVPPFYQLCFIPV
# Cytochrome P450 2C19 = Cytochrome P450 2C19 (Homo sapiens, UniProt P33261); experiment: Inhibition of CYP2C19 (unknown origin); assay type: ADME
# Cytochrome P450 2C19, sequence (P33261 whole entry): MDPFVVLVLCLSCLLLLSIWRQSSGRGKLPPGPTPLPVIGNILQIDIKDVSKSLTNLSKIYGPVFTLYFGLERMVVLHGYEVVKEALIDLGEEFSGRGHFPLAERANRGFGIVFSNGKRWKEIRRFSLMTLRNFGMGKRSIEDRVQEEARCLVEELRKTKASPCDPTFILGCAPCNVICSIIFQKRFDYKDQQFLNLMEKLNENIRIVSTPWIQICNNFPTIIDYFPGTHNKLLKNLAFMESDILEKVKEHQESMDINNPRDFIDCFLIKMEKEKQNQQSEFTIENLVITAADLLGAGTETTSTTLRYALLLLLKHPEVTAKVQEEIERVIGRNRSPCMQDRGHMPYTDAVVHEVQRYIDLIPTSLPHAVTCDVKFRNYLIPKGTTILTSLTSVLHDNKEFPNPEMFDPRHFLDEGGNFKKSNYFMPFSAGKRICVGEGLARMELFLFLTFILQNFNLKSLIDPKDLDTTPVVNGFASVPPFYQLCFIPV
# Cytochrome P450 2D6 = Cytochrome P450 2D6 (Homo sapiens, UniProt P10635); experiment: Inhibition of CYP2D6 (unknown origin); assay type: ADME
# Cytochrome P450 2D6, sequence (P10635 whole entry): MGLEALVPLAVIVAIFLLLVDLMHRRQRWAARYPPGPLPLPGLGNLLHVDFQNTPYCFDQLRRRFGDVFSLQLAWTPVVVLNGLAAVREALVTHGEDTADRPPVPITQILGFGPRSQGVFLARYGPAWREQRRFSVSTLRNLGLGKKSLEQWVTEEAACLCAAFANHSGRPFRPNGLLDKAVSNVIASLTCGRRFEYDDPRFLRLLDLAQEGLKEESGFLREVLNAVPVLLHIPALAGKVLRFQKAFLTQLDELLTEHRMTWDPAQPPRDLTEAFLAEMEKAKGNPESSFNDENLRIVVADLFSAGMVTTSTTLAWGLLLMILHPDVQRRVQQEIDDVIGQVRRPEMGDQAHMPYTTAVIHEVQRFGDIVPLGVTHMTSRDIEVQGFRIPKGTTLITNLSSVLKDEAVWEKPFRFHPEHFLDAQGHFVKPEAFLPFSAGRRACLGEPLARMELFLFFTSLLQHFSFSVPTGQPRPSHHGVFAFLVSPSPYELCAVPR
# Cytochrome P450 3A4 = Cytochrome P450 3A4 (Homo sapiens, UniProt P08684); experiment: Inhibition of CYP3A4 (unknown origin); assay type: ADME
# Cytochrome P450 3A4, sequence (P08684 whole entry): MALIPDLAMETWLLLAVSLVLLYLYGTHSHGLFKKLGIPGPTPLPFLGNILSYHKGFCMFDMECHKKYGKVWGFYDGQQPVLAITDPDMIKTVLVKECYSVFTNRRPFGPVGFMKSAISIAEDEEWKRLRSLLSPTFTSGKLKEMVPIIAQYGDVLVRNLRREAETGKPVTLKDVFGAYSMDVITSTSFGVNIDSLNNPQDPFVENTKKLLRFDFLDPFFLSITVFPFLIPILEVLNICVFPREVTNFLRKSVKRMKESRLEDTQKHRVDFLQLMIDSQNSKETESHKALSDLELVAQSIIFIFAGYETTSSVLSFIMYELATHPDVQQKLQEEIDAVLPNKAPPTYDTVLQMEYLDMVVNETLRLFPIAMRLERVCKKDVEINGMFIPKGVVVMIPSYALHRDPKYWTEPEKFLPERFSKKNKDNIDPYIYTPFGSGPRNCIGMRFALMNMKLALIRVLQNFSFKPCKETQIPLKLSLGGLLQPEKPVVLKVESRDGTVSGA
# [16] = Half life in Sprague-Dawley rat at 2 mg/kg, iv; assay type: ADME, organism-based; conditions: in vivo
# [17] = Cmax in Sprague-Dawley rat at 2 mg/kg, iv; assay type: ADME, organism-based; conditions: in vivo
# [18] = AUCt in Sprague-Dawley rat at 2 mg/kg, iv; assay type: ADME, organism-based; conditions: in vivo
# [19] = AUCinfinity in Sprague-Dawley rat at 2 mg/kg, iv; assay type: ADME, organism-based; conditions: in vivo
# [20] = Volume of distribution in Sprague-Dawley rat at 2 mg/kg, iv; assay type: ADME, organism-based; conditions: in vivo
# [21] = Clearance in Sprague-Dawley rat at 2 mg/kg, iv; assay type: ADME, organism-based; conditions: in vivo
# [22] = system: Human immunodeficiency virus 1; experiment: Potency index, ratio of (E)-3-[3,5-dimethyl-4-[2-[4-[(4-methylsulfonylpiperazin-1-yl)methyl]anilino]pyrimidin-4-yl]oxy-phenyl]prop-2-enenitrile EC50 to test compound EC50 for antiviral activity against HIV1 harboring K103 N mutant; assay type: functional
# [23] = system: Human immunodeficiency virus 1; experiment: Potency index, ratio of nevirapine EC50 to test compound EC50 for antiviral activity against HIV1 harboring K103 N mutant; assay type: functional
# [24] = system: Human immunodeficiency virus 1; experiment: Potency index, ratio of etravirine EC50 to test compound EC50 for antiviral activity against HIV1 harboring K103 N mutant; assay type: functional
# [25] = system: Human immunodeficiency virus 1; experiment: Potency index, ratio of efavirenz EC50 to test compound EC50 for antiviral activity against HIV1 harboring K103 N mutant; assay type: functional
# [26] = system: Human immunodeficiency virus 1; experiment: Potency index, ratio of etravirine EC50 to test compound EC50 for antiviral activity against HIV1 harboring E138K mutant; assay type: functional
# [27] = system: Human immunodeficiency virus 1; experiment: Potency index, ratio of (E)-3-[3,5-dimethyl-4-[2-[4-[(4-methylsulfonylpiperazin-1-yl)methyl]anilino]pyrimidin-4-yl]oxy-phenyl]prop-2-enenitrile EC50 to test compound EC50 for antiviral activity against HIV1 harboring F227L/V106A double mutant; assay type: functional
# [28] = system: Human immunodeficiency virus 1; experiment: Potency index, ratio of efavirenz EC50 to test compound EC50 for antiviral activity against HIV1 harboring F227L/V106A double mutant; assay type: functional
# [29] = system: Human immunodeficiency virus 1; experiment: microbe, parasite or virus in culture; conditions: Human immunodeficiency virus 1, IIIB, MT4
# Description: Antiviral activity against HIV1 IIIB infected in MT-4 cells assessed as viral induced cytopathic effect by MTT assay
# [30] = system: Human immunodeficiency virus 1; experiment: microbe, parasite or virus in culture; conditions: Human immunodeficiency virus 1, RES056, MT4
# Description: Antiviral activity against HIV1 RES056 infected in MT-4 cells assessed as viral induced cytopathic effect by MTT assay
structure (smiles),measurement,setting,value
Cc1cc(/C=C/C#N)cc(C)c1Oc1ccnc(Nc2ccc(N3CCS(=O)(=O)CC3)c(F)c2)n1,CC50,[1],15800 nM
same,selectivity ratio,[2],15500
same,selectivity ratio,[3],86
same,Ratio EC50,[4],32
same,Ratio EC50,[5],2.7
same,Ratio EC50,[6],190
same,Ratio EC50,[7],3.3
same,Ratio EC50,[8],3.7
same,EC50,[9],5 nM
same,EC50,[10],1 nM
same,EC50,[11],8 nM
same,EC50,[12],1170 nM
same,EC50,[13],6 nM
same,EC50,[14],24 nM
same,IC50,[15],23 nM
same,IC50,Cytochrome P450 1A2,21200 nM
same,IC50,Cytochrome P450 2C9,5570 nM
same,IC50,Cytochrome P450 2C19,5280 nM
same,IC50,Cytochrome P450 2D6,14800 nM
same,IC50,Cytochrome P450 3A4,> 100000 nM
same,half-life,[16],6.59 h
same,Cmax,[17],390 ng/mL
same,AUC(0-t),[18],297 ng·h/mL
same,AUC(0-inf),[19],316 ng·h/mL
same,Vd,[20],60.1 L/kg
same,clearance,[21],106 mL/min/kg
same,Ratio EC50,[22],3.4
same,Ratio EC50,[23],5490
same,Ratio EC50,[24],3.9
same,Ratio EC50,[25],10.9
same,Ratio EC50,[26],3.1
same,Ratio EC50,[27],10
same,Ratio EC50,[28],10
same,EC50,[29],1 nM
same,EC50,[30],180 nM
